Experiments:
Tankyrase 1/2 = target: T1, Tankyrase 1/2 (Homo sapiens, UniProt Q9H2K2+O95271); assay: Inhibition of tankyrase in WNT3a-stimulated human HEK293 cells by luciferase reporter gene assay; assay type: cell-based
T1 sequence (Q9H2K2 whole entry): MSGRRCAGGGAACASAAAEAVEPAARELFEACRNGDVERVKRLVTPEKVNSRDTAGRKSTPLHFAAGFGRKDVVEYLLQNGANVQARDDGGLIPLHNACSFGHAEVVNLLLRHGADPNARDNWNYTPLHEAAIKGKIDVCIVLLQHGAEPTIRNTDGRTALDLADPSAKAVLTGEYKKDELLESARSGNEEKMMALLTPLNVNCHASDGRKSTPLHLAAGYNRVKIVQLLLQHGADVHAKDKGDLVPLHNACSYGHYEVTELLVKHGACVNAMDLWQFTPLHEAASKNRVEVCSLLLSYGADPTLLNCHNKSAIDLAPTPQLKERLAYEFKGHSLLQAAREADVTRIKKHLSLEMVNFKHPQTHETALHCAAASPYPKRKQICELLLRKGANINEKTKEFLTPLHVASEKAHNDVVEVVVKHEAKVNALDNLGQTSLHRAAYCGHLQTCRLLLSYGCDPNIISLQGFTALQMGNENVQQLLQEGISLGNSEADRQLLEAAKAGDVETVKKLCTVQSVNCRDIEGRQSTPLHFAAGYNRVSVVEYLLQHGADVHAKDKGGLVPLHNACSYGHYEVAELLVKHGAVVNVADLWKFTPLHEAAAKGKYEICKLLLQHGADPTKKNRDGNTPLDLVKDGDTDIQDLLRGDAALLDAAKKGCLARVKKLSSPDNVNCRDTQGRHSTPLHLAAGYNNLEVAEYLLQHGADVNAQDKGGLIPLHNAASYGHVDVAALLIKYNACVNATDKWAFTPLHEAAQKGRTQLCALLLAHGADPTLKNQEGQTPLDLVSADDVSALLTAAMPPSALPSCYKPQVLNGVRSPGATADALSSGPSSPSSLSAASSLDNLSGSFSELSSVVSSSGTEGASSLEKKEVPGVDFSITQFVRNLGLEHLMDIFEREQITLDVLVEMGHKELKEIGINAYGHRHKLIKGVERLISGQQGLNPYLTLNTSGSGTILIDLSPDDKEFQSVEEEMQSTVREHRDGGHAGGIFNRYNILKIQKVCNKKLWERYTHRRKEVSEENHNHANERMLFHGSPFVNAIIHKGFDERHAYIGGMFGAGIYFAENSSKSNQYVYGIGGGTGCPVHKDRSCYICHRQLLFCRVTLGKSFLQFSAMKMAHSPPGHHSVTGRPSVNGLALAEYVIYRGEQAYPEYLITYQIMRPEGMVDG
T1 sequence (O95271 whole entry): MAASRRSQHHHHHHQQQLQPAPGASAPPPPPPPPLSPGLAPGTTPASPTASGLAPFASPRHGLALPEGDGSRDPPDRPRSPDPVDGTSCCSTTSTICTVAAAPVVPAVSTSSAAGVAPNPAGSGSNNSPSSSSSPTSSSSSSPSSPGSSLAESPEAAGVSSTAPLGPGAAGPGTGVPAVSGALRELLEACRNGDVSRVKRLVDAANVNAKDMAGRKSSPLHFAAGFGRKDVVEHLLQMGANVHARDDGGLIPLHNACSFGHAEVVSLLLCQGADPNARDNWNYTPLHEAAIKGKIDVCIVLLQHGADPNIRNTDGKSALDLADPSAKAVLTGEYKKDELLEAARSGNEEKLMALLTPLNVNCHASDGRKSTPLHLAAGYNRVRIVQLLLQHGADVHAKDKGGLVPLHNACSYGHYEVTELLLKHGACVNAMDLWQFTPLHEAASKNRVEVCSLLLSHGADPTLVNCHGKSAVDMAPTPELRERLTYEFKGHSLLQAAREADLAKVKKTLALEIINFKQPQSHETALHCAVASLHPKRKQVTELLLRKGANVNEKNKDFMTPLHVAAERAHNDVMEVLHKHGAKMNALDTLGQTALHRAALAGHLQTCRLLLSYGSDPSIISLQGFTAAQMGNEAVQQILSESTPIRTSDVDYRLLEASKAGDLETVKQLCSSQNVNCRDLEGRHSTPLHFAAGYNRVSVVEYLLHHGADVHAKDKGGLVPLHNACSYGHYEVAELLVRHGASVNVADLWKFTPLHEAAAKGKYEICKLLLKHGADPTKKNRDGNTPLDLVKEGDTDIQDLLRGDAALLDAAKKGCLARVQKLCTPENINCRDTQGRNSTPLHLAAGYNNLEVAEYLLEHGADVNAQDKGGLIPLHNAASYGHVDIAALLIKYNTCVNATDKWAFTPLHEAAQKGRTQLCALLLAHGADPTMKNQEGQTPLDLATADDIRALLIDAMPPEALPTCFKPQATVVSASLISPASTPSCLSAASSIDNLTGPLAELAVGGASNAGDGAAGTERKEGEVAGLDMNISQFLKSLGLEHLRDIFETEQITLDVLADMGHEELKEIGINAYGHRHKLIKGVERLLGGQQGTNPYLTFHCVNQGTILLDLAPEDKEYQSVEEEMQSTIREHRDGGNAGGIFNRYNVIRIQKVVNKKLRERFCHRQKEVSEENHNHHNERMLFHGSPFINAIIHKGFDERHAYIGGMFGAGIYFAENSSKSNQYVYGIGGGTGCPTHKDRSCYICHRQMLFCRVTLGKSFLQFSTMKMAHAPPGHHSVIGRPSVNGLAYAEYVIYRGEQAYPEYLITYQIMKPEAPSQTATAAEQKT

[1] = target: T2, Poly [ADP-ribose] polymerase tankyrase-2 (Homo sapiens, UniProt Q9H2K2); assay: Inhibition of human TNKS2 by fluorescence analysis
T2 sequence (Q9H2K2 whole entry): T1 sequence (Q9H2K2 whole entry)

IC50 (Tankyrase 1/2): 360 nM | IC50 ([1]; read-out: IC50): 2150 nM | IC50 ([1]; read-out: pIC50 (converted)): 2140 nM
SMILES: COc1ccc(C2(CNC(=O)c3ccc(NC(=O)c4ccco4)cc3Cl)CCOCC2)cc1

— ChEMBL document CHEMBL3751785, “Development and structural analysis of adenosine site binding tankyrase inhibitors” (Bioorg Med Chem Lett, 2016)
